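Growth conditions: 96-well plates. Treatment: test compound, 48 hours, 5 concentrations. Analysis: linear interpolation between bracketing concentrations; unreached endpoints set to highest concentration. GI50 is the concentration that inhibits growth by half.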 Calls of active or inactive are those of the source. No stated cut-off is given here; in the data, active = GI50 up to about 1.1 µM and inactive = higher.
Columns and labels:
Assay in all cases: inhibition of tumour cell growth, NCI panel, 48 h
SNB-19 = test system: SNB-19
786-0 = test system: 786-0
OVCAR-4 = test system: OVCAR-4
HCT-15 = test system: HCT-15
SF-268 = test system: SF-268
HT-29 = test system: HT-29
UO-31 = test system: UO-31
IGROV-1 = test system: IGROV-1
MDA-MB-231 = test system: MDA-MB-231
SF-539 = test system: SF-539
RPMI-8226 = test system: RPMI-8226
NCI-H460 = test system: NCI-H460
CCRF-CEM = test system: CCRF-CEM
RXF 393 = test system: RXF 393
ACHN = test system: ACHN
SK-OV-3 = test system: SK-OV-3
Hs-578T = test system: Hs-578T
KM12 = test system: KM12
NCI-H522 = test system: NCI-H522
OVCAR-3 = test system: OVCAR-3

Row | SMILES | GI50 (SNB-19) | GI50 (786-0) | GI50 (OVCAR-4) | GI50 (HCT-15) [µM] | GI50 (SF-268) | GI50 (HT-29) | GI50 (UO-31) | GI50 (IGROV-1) | GI50 (MDA-MB-231) | GI50 (SF-539) | GI50 (RPMI-8226) | GI50 (NCI-H460) | GI50 (CCRF-CEM) | GI50 (RXF 393) | GI50 (ACHN) | GI50 (SK-OV-3) | GI50 (Hs-578T) | GI50 (KM12) | GI50 (NCI-H522) | GI50 (OVCAR-3)
1 | N=C1N(S(=O)(=O)c2ccccc2)[C@@H](Cc2ccccc2)[C@H](c2ccccc2)C1(c1ccccc1)c1ccccc1 | > 100 µM (inactive) | > 100 µM (inactive) | > 100 µM (inactive) | > 100 | > 100 µM (inactive) | > 100 µM (inactive) | 8.55 µM (inactive) | > 100 µM (inactive) | > 100 µM (inactive) | > 100 µM (inactive) | 14 µM (inactive) | 36.7 µM (inactive) | 27.2 µM (inactive) | 63.2 µM (inactive) | > 100 µM (inactive) | > 100 µM (inactive) | > 100 µM (inactive) | 31.4 µM (inactive) | 39.5 µM (inactive) | 10.4 µM (inactive)
2 | CCCCCCCC/C=C\CCCCCCC(F)C(=O)O (stereo not given) | > 12.5 µM (inactive) | > 12.5 µM (inactive) | > 12.5 µM (inactive) | > 12.5 | > 12.5 µM (inactive) | > 12.5 µM (inactive) | > 12.5 µM (inactive) | > 12.5 µM (inactive) | > 12.5 µM (inactive) | > 12.5 µM (inactive) | 11.2 µM (inactive) |  | > 12.5 µM (inactive) | > 12.5 µM (inactive) | > 12.5 µM (inactive) | > 12.5 µM (inactive) | > 12.5 µM (inactive) | > 12.5 µM (inactive) | > 12.5 µM (inactive) | > 12.5 µM (inactive)
3 | C[N+](C)(C)CCN[N+]1(C)CCCc2ccccc21 (stereo not given) | > 100 µM (inactive) | 33.3 µM (inactive) | > 100 µM (inactive) | > 100 | > 100 µM (inactive) | > 100 µM (inactive) | > 100 µM (inactive) | > 100 µM (inactive) | > 100 µM (inactive) | 4.92 µM (inactive) | 32.8 µM (inactive) | > 100 µM (inactive) |  | 36 µM (inactive) | > 100 µM (inactive) | > 100 µM (inactive) | > 100 µM (inactive) | > 100 µM (inactive) | 18.5 µM (inactive) | > 100 µM (inactive)
4 | COC1(OC)CC(CO)(CNc2nc(N)nc(Cl)c2/C=N\O)C1 | 40.7 µM (inactive) | 44.2 µM (inactive) | 29.5 µM (inactive) | 75.5 | > 100 µM (inactive) | 38.4 µM (inactive) | 39.2 µM (inactive) | 21.3 µM (inactive) | 72.9 µM (inactive) | 38.8 µM (inactive) | 13.6 µM (inactive) | 37.4 µM (inactive) | 47.1 µM (inactive) | 18.7 µM (inactive) | 24.6 µM (inactive) |  | 22.7 µM (inactive) | 7.05 µM (inactive) | 6.67 µM (inactive) | 21.7 µM (inactive)
5 | O=C(Nc1nc(C23CC4CC(CC(C4)C2)C3)cs1)c1c(O)c2ccccc2[nH]c1=O | > 100 µM (inactive) | > 100 µM (inactive) | 60.5 µM (inactive) | > 100 | 23.3 µM (inactive) | > 100 µM (inactive) | > 100 µM (inactive) | > 100 µM (inactive) | 78.9 µM (inactive) | > 100 µM (inactive) | > 100 µM (inactive) | > 100 µM (inactive) | > 100 µM (inactive) | 53.6 µM (inactive) | > 100 µM (inactive) |  | > 100 µM (inactive) | > 100 µM (inactive) | > 100 µM (inactive) | > 100 µM (inactive)
6 | CC(C)NCCC(O)c1cc2ccccc2o1 (stereo not given) | > 100 µM (inactive) | > 100 µM (inactive) | > 100 µM (inactive) | > 100 | > 100 µM (inactive) | > 100 µM (inactive) | > 100 µM (inactive) | > 100 µM (inactive) | > 100 µM (inactive) | > 100 µM (inactive) | > 100 µM (inactive) | > 100 µM (inactive) |  | > 100 µM (inactive) | > 100 µM (inactive) | > 100 µM (inactive) | > 100 µM (inactive) | > 100 µM (inactive) | > 100 µM (inactive) | > 100 µM (inactive)
7 | CC1=NNC(=O)C1C1C=C(c2c[nH]c3ccccc23)OC1=O (stereo not given) | > 100 µM (inactive) | > 100 µM (inactive) |  | > 100 | > 100 µM (inactive) | > 100 µM (inactive) | > 100 µM (inactive) | 37 µM (inactive) | > 100 µM (inactive) | > 100 µM (inactive) | 39.8 µM (inactive) | > 100 µM (inactive) | 59.6 µM (inactive) | > 100 µM (inactive) | > 100 µM (inactive) | > 100 µM (inactive) | > 100 µM (inactive) | 21.7 µM (inactive) | > 100 µM (inactive) | > 100 µM (inactive)
8 | COc1cccc(OCC(=N/NC(=O)c2ccncc2)/N=C/c2cccnc2)c1 | > 100 µM (inactive) | > 100 µM (inactive) | > 100 µM (inactive) | > 100 | > 100 µM (inactive) | > 100 µM (inactive) |  | > 100 µM (inactive) | > 100 µM (inactive) | > 100 µM (inactive) | 68.2 µM (inactive) | > 100 µM (inactive) | > 100 µM (inactive) | > 100 µM (inactive) | > 100 µM (inactive) | > 100 µM (inactive) | > 100 µM (inactive) | > 100 µM (inactive) | > 100 µM (inactive) | > 100 µM (inactive)
9 | O=C(CN1C(=O)c2ccccc2C1=O)C(O)CN1C(=O)c2ccccc2C1=O (stereo not given) | 50.7 µM (inactive) | 28 µM (inactive) | 98.4 µM (inactive) | 92.5 | 23.5 µM (inactive) | > 100 µM (inactive) | 73.3 µM (inactive) | 43.7 µM (inactive) | 22.5 µM (inactive) | 33.2 µM (inactive) | > 100 µM (inactive) | > 100 µM (inactive) |  | 34.4 µM (inactive) | 20 µM (inactive) | 27.9 µM (inactive) | 34.7 µM (inactive) | 84.1 µM (inactive) | > 100 µM (inactive) | > 100 µM (inactive)
10 | CSc1ccc2c(c1)N(CCCN(C)C)c1ccccc1S2 | 16.2 µM (inactive) | 13.7 µM (inactive) | 11.5 µM (inactive) | 15 | 13.6 µM (inactive) | 6.78 µM (inactive) |  | 13.2 µM (inactive) | 12.7 µM (inactive) | 17.3 µM (inactive) | 12.2 µM (inactive) | 10.8 µM (inactive) | 5.89 µM (inactive) | 7.55 µM (inactive) | 11.7 µM (inactive) | 15.1 µM (inactive) | 11 µM (inactive) | 11.8 µM (inactive) | 12.8 µM (inactive) | 12.8 µM (inactive)
11 | CCc1cc2c(oc3cc(C)ccc32)c(=O)n1C | > 10 µM (inactive) | > 10 µM (inactive) | > 10 µM (inactive) | > 10 | > 10 µM (inactive) | > 10 µM (inactive) | > 10 µM (inactive) | > 10 µM (inactive) | > 10 µM (inactive) | > 10 µM (inactive) |  | > 10 µM (inactive) | > 10 µM (inactive) | > 10 µM (inactive) | > 10 µM (inactive) | > 10 µM (inactive) | > 10 µM (inactive) | > 10 µM (inactive) | > 10 µM (inactive) | > 10 µM (inactive)
